Test results from patent US20260109709A1 (MIRATI THERAPEUTICS, INC., priority 2021, published 2026).
Structures can show the parent of a compound that is named as a salt. Where two headings read alike, the source gives them in different places.

Target: T1, PRMT5/MEP50 complex (Homo sapiens, UniProt O14744)
T1 construct: purchased Reaction Biology Corporation
Test: PRMT5:MEP50 FlashPlate Assay (histone H4 peptide methylation)
Type: biochemical
Details: 40 nM H4 (1-15) peptide, 1 μM SAM
Procedure: The PRMT5 inhibitory activity of compounds of the present invention was determined using a PRMT5: MEP50 FlashPlate Assay and a PRMT5: MEP50 HotSpot Assay (Reaction Biology Corporation).
The assay uses purified human, PRMT5 enzyme to convert S-adenosyl-L-[methyl-3H]methionine plus histone H4 L-arginine to S-adenosyl-L-homocysteine plus histone H4 [methyl-3H]-L-arginine. The assay was carried out using Streptavidin-coated FlashPlates (Perkin Elmer), which contained a scintillant embedded in the plastic of the plate. The histone H4 peptide substrate was conjugated with biotin, which binds to the streptavidin-coated well of the plate, placing the H4 peptide in close proximity to the side well and the scintillant. The transfer of the tritiated methyl group from S-adenosyl-L-[methyl-3H]methionine to the bound histone H4 peptide generated a radiolabeled histone H4, which was quantitated by measuring in a scintillation counter to determine the activity of PRMT5 enzyme in the presence and absence of compound. […] Briefly, compounds of the present invention were solubilized in 100% DMSO at a highest concentration of 10 mM. […] Control samples lacking compound, PRMT5/MEP50 complex or various reaction components also were prepared and processed in parallel with compound test samples. SAH was used as a positive control for assay validation. To measure PRMT5 inhibitory activity, 3 nM PRMT5/MEP50 complex (Reaction Biology Corporation) was preincubated with test compound in assay buffer containing 40 nM histone H4 peptide (amino acids 1-15)-Biotin conjugate for 20 min at room temperature. The enzymatic reaction was initiated by adding 1 μM tritiated S-adenosyl methionine (final concentration) and the reaction is allowed to proceed for 20 min. The reaction was stopped and the amount of bound, tritiated H4 peptide in each sample was determined using a scintillation counter.

T1 sequence (O14744 2-637 limits assumed): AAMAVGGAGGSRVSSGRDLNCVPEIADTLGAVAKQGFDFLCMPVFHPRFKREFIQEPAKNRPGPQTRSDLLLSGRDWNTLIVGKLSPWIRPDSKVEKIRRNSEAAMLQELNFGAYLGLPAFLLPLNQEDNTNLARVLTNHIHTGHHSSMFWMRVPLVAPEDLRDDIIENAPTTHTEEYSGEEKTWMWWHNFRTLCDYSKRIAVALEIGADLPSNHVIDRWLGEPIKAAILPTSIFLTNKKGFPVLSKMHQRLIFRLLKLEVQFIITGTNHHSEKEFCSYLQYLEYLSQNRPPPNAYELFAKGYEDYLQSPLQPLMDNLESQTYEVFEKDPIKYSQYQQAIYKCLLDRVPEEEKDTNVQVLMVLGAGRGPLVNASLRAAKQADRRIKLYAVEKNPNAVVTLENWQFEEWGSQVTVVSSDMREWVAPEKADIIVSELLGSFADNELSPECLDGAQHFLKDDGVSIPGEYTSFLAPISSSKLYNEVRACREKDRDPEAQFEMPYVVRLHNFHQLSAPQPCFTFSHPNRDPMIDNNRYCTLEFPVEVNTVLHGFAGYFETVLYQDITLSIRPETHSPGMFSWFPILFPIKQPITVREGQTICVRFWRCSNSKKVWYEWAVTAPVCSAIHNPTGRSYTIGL
T1 sequence (Q9BQA1 2-342 partner limits assumed): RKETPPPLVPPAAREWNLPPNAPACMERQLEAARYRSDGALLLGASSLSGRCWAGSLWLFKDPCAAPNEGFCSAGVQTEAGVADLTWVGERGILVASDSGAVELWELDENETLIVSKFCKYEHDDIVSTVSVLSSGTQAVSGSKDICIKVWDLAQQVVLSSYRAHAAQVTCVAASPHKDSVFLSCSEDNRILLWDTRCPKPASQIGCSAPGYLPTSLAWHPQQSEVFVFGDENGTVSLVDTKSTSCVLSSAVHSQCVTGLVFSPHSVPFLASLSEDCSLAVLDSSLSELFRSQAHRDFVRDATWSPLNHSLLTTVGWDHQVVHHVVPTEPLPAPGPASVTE

| Compound | IC50 (IC50 + 2 μM MTA, plus 2 μM MTA) [µM] | IC50 (absence of MTA, read-out: IC50) [µM] |
| --- | --- | --- |
| CCO[C@@H]1COC[C@H]1Nc1cccc2c1nc(N)n2C (racemic) [Example 1-7, rac-N4-((3R,4S)-4-ethoxytetrahydrofuran-3-yl)-1-methyl-1H-benzo[d]imidazole-2,4-diamine] | > 300 |  |
| Cn1c(N)nc2c(NCCN3CC4CC4C3)cccc21 (centres unmarked) [Example 1-8, N4-(2-(3-azabicyclo[3.1.0]hexan-3-yl)ethyl)-1-methyl-1H-benzo[d]imidazole-2,4-diamine] | > 300 |  |
| Cn1c(N)nc2c(Nc3cnn(CCN4CCCC4=O)c3)cccc21 [Example 1-13, 1-(2-(4-((2-amino-1-methyl-1H-benzo[d]imidazol-4-yl)amino)-1H-pyrazol-1-yl)ethyl)pyrrolidin-2-one] | > 300 |  |
| Cn1c(N)nc2c(Nc3ccncc3)cccc21 [Example 1-31, 1-methyl-N4-(pyridin-4-yl)-1H-benzo[d]imidazole-2,4-diamine] | > 300 |  |
| Cn1c(N)nc2c(Nc3ccncn3)cccc21 [Example 1-32, 1-methyl-N4-(pyrimidin-4-yl)-1H-benzo[d]imidazole-2,4-diamine] | > 300 |  |
| Cc1nnc(CN(C)c2cccc3c2nc(N)n3C)n1C [Example 1-50, N4-((4,5-dimethyl-4H-1,2,4-triazol-3-yl)methyl)-N4,1-dimethyl-1H-benzo[d]imidazole-2,4-diamine] | > 300 |  |
| CN(Cc1nnc2n1CCOC2)c1cccc2c1nc(N)n2C [Example 1-51, N4-((5,6-dihydro-8H-[1,2,4]triazolo[3,4-c][1,4]oxazin-3-yl)methyl)-N4,1-dimethyl-1H-benzo[d]imidazole-2,4-diamine] | > 300 |  |
| Cn1c(N)nc2cc(-c3cncnc3)ccc21 [Example 1-52, 1-methyl-5-(pyrimidin-5-yl)-1H-benzo[d]imidazol-2-amine] | > 300 |  |
| Cn1c(N)nc2cc(-c3cccnc3)ccc21 [Example 1-54, 1-methyl-5-(pyridin-3-yl)-1H-benzo[d]imidazol-2-amine] | > 300 |  |
| Cc1ncccc1-c1ccc2c(c1)nc(N)n2C [Example 1-58, 1-methyl-5-(2-methylpyridin-3-yl)-1H-benzo[d]imidazol-2-amine] | > 300 |  |
| Cn1c(N)nc2cc(-c3cn[nH]c3)ccc21 [Example 1-60, 1-methyl-5-(1H-pyrazol-4-yl)-1H-benzo[d]imidazol-2-amine] | > 300 |  |
| Cn1c(N)nc2cc(-c3occc3C#N)ccc21 [Example 1-61, 2-(2-amino-1-methyl-1H-benzo[d]imidazol-5-yl)furan-3-carbonitrile] | 34.5 |  |
| Cn1c(N)nc2c(-c3cncnc3)cccc21 [Example 1-62, 1-methyl-4-(pyrimidin-5-yl)-1H-benzo[d]imidazol-2-amine] | > 300 |  |
| Cn1c(N)nc2c(-c3cccnc3)cccc21 [Example 1-64, 1-methyl-4-(pyridin-3-yl)-1H-benzo[d]imidazol-2-amine] | > 300 |  |
| Cn1c(N)nc2c(-c3ccccc3)cccc21 [Example 1-65, 1-methyl-4-phenyl-1H-benzo[d]imidazol-2-amine] | > 300 |  |
| Cn1c(N)nc2c(-c3ccncc3)cccc21 [Example 1-66, 1-methyl-4-(pyridin-4-yl)-1H-benzo[d]imidazol-2-amine] | > 300 |  |
| Cn1nccc1-c1cccc2c1nc(N)n2C [Example 1-67, 1-methyl-4-(1-methyl-1H-pyrazol-5-yl)-1H-benzo[d]imidazol-2-amine] | > 300 |  |
| Cn1ccc(-c2cccc3c2nc(N)n3C)n1 [Example 1-68, 1-methyl-4-(1-methyl-1H-pyrazol-3-yl)-1H-benzo[d]imidazol-2-amine] | > 300 |  |
| Cc1cc(-c2cccc3c2nc(N)n3C)cnc1O [Example 1-70, 5-(2-amino-1-methyl-1H-benzo[d]imidazol-4-yl)-3-methylpyridin-2-ol] | > 300 |  |
| Cn1cc(-c2cccc3c2nc(N)n3C)ccc1=O [Example 1-71, 5-(2-amino-1-methyl-1H-benzo[d]imidazol-4-yl)-1-methylpyridin-2(1H)-one] | > 300 |  |
| Cn1c(N)nc2c(-c3ccnnc3)cccc21 [Example 1-72] | > 300 |  |
| Cn1c(N)nc2cc(-c3ccnnc3)ccc21 [Example 1-73, 1-methyl-5-(pyridazin-4-yl)-1H-benzo[d]imidazol-2-amine] | > 300 |  |
| Cc1nn(C(C)C)cc1Nc1cccc2c1nc(N)n2C [Example 1-74, N4-(1-isopropyl-3-methyl-1H-pyrazol-4-yl)-1-methyl-1H-benzo[d]imidazole-2,4-diamine] | > 300 |  |
| Cn1c(N)nc2c(NCc3cn4cccc(F)c4n3)cccc21 [Example 1-75, N4-((8-fluoroimidazo[1,2-a]pyridin-2-yl)methyl)-1-methyl-1H-benzo[d]imidazole-2,4-diamine] | 180 |  |
| Cn1c(N)nc2c(Nc3cnccn3)cccc21 [Example 1-76, 1-methyl-N4-(pyrazin-2-yl)-1H-benzo[d]imidazole-2,4-diamine] | > 300 |  |
| Cn1c(N)nc2c(Nc3ncccn3)cccc21 [Example 1-78, 1-methyl-N4-(pyrimidin-2-yl)-1H-benzo[d]imidazole-2,4-diamine] | > 300 |  |
| Cn1c(N)nc2cc(Nc3cnccn3)ccc21 [Example 1-82, 1-methyl-N5-(pyrazin-2-yl)-1H-benzo[d]imidazole-2,5-diamine] | 50.7 |  |

More lines, now with the values ahead:

| IC50 (IC50 + 2 μM MTA, plus 2 μM MTA) [µM] | IC50 (absence of MTA, read-out: IC50) [µM] | Compound |
| --- | --- | --- |
| > 300 | > 300 | Cn1cc(-c2ccc(Cl)c3c2nc(N)n3C)cn1 [Example 2-1, 7-chloro-1-methyl-4-(1-methylpyrazol-4-yl)benzimidazol-2-amine hydrochloride] |
| > 300 | > 300 | CN1C(=O)CCC1c1ccc(Cl)c2c1nc(N)n2C (centres unmarked) [Example 2-5, 5-(2-amino-7-chloro-1-methyl-benzimidazol-4-yl)-1-methyl-pyrrolidin-2-one hydrochloride] |
| > 300 | > 300 | CN1CCOC(Cc2ccc(Cl)c3c2nc(N)n3C)C1 (centres unmarked) [Example 2-6, 7-chloro-1-methyl-4-[(4-methylmorpholin-2-yl)methyl]benzimidazol-2-amine] |
| > 300 | > 300 | Cn1c(N)nc2c(-c3cnoc3)ccc(Cl)c21 [Example 2-7, 7-chloro-4-isoxazol-4-yl-1-methyl-benzimidazol-2-amine] |
| > 300 | > 300 | Cn1c(N)nc2cc(Cc3ccncc3)cc(C#N)c21 [Example 3-4, 2-amino-3-methyl-6-(4-pyridylmethyl)benzimidazole-4-carbonitrile] |
| > 300 | > 300 | Cn1c(N)nc2cc(C(F)(F)c3cccnc3)cc(C#N)c21 [Example 3-17, 2-amino-6-[difluoro (3-pyridyl)methyl]-3-methyl-benzimidazole-4-carbonitrile] |
| 0.43 | 155 | Cn1nnc(CNc2cc(C#N)c3c(c2)nc(N)n3C)c1C(F)F [Example 3-23, 2-amino-5-(((5-(difluoromethyl)-1-methyl-1H-1,2,3-triazol-4-yl)methyl)amino)-1-methyl-1H-benzo[d]imidazole-7-carbonitrile] |
| 0.73 | 280 | CCn1cnnc1CNc1cc(C#N)c2c(c1)nc(N)n2C [Example 3-24, 2-amino-5-(((4-ethyl-4H-1,2,4-triazol-3-yl)methyl)amino)-1-methyl-1H-benzo[d]imidazole-7-carbonitrile] |
| 0.006 | 2.48 | CC(=O)N(Cc1cc(C#N)c2c(c1)nc(N)n2C)c1ccc2ccccc2c1C#N [Example 3-25, N-[(2-amino-7-cyano-1-methyl-benzimidazol-5-yl)methyl]-N-(1-cyano-2-naphthyl) acetamide] |
| 122 | > 300 | Cn1c(N)nc2cc(Cc3ccccn3)cc(C(F)F)c21 [Example 4-2, 7-(difluoromethyl)-1-methyl-5-(2-pyridylmethyl)benzimidazol-2-amine] |
| > 300 | > 300 | CCn1c(N)nc2ncccc21 [Example 5-1, 1-ethyl-1H-imidazo[4,5-b]pyridin-2-amine hydrochloride] |
| > 300 | > 300 | Cn1c(N)nc2cc(Oc3cccnc3)cnc21 [Example 5-3, 3-methyl-6-(3-pyridyloxy) imidazo[4,5-b]pyridin-2-amine] |
| 17.8 | 198 | CCc1cc(-c2cnn(C)c2-c2ccccc2C#N)c2nc(N)n(C)c2c1 [Example 6-3, 2-[4-(2-amino-6-ethyl-1-methyl-benzimidazol-4-yl)-2-methyl-pyrazol-3-yl]benzonitrile hydrochloride] |
